Results from patent US20090029366A1 (priority 2007, published 2009).

Target: T1, human HCN4 channel (Homo sapiens, UniProt Q9Y3Q4)
T1 construct: expressed in transfected cells; host or cells: CHO-K1
T1 sequence (Q9Y3Q4 1-1203): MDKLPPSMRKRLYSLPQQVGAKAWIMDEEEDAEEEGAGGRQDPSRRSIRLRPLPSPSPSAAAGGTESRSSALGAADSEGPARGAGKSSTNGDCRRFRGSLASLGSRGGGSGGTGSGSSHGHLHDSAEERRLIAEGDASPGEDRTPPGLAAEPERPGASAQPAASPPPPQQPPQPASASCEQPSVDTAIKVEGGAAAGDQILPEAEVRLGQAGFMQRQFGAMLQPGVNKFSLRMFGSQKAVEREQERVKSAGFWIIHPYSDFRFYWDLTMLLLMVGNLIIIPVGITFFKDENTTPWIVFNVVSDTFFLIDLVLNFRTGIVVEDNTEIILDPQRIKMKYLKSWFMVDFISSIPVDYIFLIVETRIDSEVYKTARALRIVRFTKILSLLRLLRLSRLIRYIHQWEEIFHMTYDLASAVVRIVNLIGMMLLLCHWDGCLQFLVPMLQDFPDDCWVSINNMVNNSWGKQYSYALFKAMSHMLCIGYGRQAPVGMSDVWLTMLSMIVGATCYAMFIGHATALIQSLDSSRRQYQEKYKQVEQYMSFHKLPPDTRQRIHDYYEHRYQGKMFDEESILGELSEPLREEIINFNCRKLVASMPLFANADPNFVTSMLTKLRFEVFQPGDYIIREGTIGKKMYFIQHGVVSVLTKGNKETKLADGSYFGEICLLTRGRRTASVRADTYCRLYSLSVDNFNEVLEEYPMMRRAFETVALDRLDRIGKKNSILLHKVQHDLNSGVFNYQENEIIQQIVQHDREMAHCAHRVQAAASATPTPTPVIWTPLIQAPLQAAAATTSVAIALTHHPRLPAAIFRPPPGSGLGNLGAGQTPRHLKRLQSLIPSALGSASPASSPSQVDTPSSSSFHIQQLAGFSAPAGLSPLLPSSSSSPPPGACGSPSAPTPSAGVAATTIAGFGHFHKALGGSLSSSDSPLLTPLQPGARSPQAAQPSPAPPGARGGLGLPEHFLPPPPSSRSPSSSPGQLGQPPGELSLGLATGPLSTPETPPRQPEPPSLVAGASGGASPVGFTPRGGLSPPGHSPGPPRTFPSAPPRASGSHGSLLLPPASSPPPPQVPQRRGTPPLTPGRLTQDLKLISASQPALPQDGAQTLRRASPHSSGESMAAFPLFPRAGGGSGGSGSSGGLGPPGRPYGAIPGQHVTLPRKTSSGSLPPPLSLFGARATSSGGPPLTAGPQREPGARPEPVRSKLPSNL
Experiment: MPSD FLIPR 384 hyperpolarization assay, HCN4 (CHO-K1 cells)
Type: cell-based
Conditions: 50 μM ZD7288
Description: CHO-K1 cells stably expressing a human HCN4 channel were plated as described in Example 3 above. Using a FLIPR®^96 assay, control cells were incubated in 30 μl/well HBSS (Gibco catalog 14025-092 containing NaCl, 137.93; KCl, 5.33; KH2PO4, 0.44; NaHCO3, 4.17; Na2HPO4, 0.34; CaCl2, 1.26; MgCl2, 0.49; MgSO4, 0.41; D-Glucose 5.56). The HBSS was supplemented with MPSD (1 vial/0.5 L). The saline for test cells additionally included 30 μM of the channel inhibitor ZD7288 dissolved in <1.0% DMSO. After 15-30 minutes incubation, background fluorescence was recorded on FLIPR and the membrane hyperpolarization induced by the addition of 200 μl sodium/potassium diluent solution (140 Choline-Cl, 1.0 mM CaCl2, 1.0 mM CaCl2, 10 mM HEPES, 5.5 mM D-glucose, pH 7.3 with TRIS-OH), supplemented with MPSD (1 vial/0.5 L) was recorded on FLIPR.
The FLIPR®^384 well plate was prepared similarly to the FLIPR®^96 well plate except that the amounts of HBSS (optionally, HBSS was supplemented with about 25 to 50 mM of KCl to further enhance assay window) and the sodium/potassium diluent solution were adjusted to keep the dilution ratio of these solutions between about 1:10-1:30, respectively. Additionally, 50 μM ZD7288 was added to the saline containing test cells. […] In addition, less than about 0.02% false positives or false negatives were observed (covariance 11.03 and 12.05, data not shown).

## CCN(c1ccccc1)c1cc(=NC)n(C)c(C)n1.Cl [ZD7288]
  blockade of hyperpolarization of HCN4 channels: effectively blocked hyperpolarization
